Data set [1] concerns the target T1, OCT3 (SLC22A3) (Mus musculus, UniProt Q9WTW5).
T1 sequence (Q9WTW5 whole entry): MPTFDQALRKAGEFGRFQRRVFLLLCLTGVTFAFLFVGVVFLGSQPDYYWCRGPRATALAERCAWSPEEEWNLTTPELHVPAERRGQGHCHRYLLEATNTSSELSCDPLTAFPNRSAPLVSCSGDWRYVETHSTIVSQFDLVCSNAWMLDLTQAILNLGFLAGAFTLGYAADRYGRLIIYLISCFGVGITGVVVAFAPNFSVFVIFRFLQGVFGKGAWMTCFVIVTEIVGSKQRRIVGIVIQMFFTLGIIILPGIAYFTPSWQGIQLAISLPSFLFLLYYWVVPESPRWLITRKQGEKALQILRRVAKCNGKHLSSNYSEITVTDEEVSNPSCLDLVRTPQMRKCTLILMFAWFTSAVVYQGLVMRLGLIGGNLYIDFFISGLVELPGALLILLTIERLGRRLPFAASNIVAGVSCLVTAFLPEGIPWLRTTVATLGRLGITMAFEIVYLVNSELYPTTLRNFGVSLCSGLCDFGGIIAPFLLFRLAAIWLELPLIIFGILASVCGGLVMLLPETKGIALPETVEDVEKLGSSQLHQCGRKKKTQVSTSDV
The data set can be described thus: TP_TRANSPORTER: inhibition of TEA uptake (TEA: 20 uM, MPTP: 5000 uM) in OCT3-expressing HRPE cells. Format: functional, cell-based. The following applies: human, HRPE cells that express OCT3, probe TEA.

The target in data set [2] is T2, Solute carrier family 22 member 3 (Mus musculus, UniProt Q9WTW5).
T2 sequence (Q9WTW5 whole entry): T1 sequence (Q9WTW5 whole entry)
The data set can be described thus: TP_TRANSPORTER: uptake in Xenopus laevis oocytes. Format: functional, cell-based. The settings on record: oocyte.

Data set [3] addresses T3, Solute carrier family 22 member 3 (Homo sapiens, UniProt O75751).
T3 sequence (O75751 whole entry): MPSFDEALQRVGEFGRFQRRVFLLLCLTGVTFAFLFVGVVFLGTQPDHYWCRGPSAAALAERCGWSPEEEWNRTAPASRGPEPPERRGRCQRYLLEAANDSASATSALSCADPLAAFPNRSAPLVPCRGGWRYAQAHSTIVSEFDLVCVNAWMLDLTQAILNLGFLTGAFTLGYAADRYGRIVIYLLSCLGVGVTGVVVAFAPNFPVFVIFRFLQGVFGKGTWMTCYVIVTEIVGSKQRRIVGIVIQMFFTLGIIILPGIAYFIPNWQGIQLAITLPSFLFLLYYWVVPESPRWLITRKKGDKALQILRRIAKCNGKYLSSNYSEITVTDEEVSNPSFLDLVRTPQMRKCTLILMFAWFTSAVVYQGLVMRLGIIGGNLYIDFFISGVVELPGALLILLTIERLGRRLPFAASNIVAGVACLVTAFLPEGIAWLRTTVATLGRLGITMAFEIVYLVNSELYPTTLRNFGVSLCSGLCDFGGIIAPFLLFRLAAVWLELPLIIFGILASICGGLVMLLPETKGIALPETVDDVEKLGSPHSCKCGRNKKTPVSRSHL
Put plainly: TP_TRANSPORTER: inhibition of MPP+ uptake in OCT3-expressing HRPE cells. Format: functional, cell-based.

For data set [4], the target named is T1, OCT3 (SLC22A3). Put plainly: TP_TRANSPORTER: inhibition of TEA uptake (TEA: 20 uM, MPP+: 5000 uM) in OCT3-expressing HRPE cells. The class given is functional, cell-based. The following applies: human, HRPE cells that express OCT3, probe TEA.
The target in data set [5] is T1, OCT3 (SLC22A3). The data set can be described thus: in vitro. The settings on record: human, HRPE cells that express OCT3, probe TEA.
For data set [6], the target named is T1, OCT3 (SLC22A3). Put plainly: in vitro. The following applies: human, HRPE cells that express OCT3, probe TEA. The source holds these as a separate data set.
For data set [7], the target named is T2, Solute carrier family 22 member 3. The data set can be described thus: TP_TRANSPORTER: inhibition of TEA uptake (TEA: 20 uM, Guanidine: 5000 uM) in OCT3-expressing HRPE cells. The following applies: human. The class given is functional, cell-based.
The target is the same in data set [8]. Put plainly: TP_TRANSPORTER: inhibition of TEA uptake (TEA: 20 uM, NMN: 5000 uM) in OCT3-expressing HRPE cells. The settings on record: human. Format: functional, cell-based.
Data set [9] concerns the target T3, Solute carrier family 22 member 3. The data set can be described thus: TP_TRANSPORTER: uptake in OCT3-expressing HRPE cells. The class given is functional, cell-based.
Substrate in data set [10]: CC[N+](CC)(CC)CC
The data set can be described thus: cells, lysate or membranes named.

Experimental findings from ChEMBL document CHEMBL2073845, “Structure, function, and regional distribution of the organic cation transporter OCT3 in the kidney” (Am J Physiol Renal Physiol, 2000) are described below.

Some results are limits rather than exact numbers.

Consider `CN1CC=C(c2ccccc2)CC1`, for which the inhibition at 5000 µM on OCT3 (SLC22A3) [1] was above 90%.
Consider `C[n+]1ccc(-c2ccccc2)cc1`, for which the Activity entry in [2] is “substrate [+]”. In data set [3], this molecule showed an inhibition constant Ki of 54 µM. For the same molecule, at OCT3 (SLC22A3) [4], the inhibition at 5000 µM is above 90%.
In turn, `CN/C(=N/CCSCc1nc[nH]c1C)NC#N` [CIMETIDINE] displayed an inhibition at 5000 µM against OCT3 (SLC22A3) [5] above 90%.
The molecule `Clc1cccc(Cl)c1N=C1NCCN1` [CLONIDINE] gave a Ki in data set [3] of 373 µM. The inhibition at 5000 µM at OCT3 (SLC22A3) [6] is above 90%.
`CNCCCN1c2ccccc2CCc2ccccc21` [DESIPRAMINE] registered a Ki in data set [3] of 14 µM.
With `N=C(N)N` [GUANIDINE], the Activity result in data set [2] is “substrate [+]”. For the same molecule, the Ki in data set [3] is 6200 µM. The Inhibition result in [7] is “inhibitor [60-70 % inhibition]”.
Molecule `CN(C)CCCN1c2ccccc2CCc2ccccc21` [IMIPRAMINE] had a Ki in data set [3] of 42 µM.
For the molecule `CNC(=O)c1cccnc1` [NICOTINYL METHYLAMIDE], in data set [8], the Inhibition result is “inhibitor [60-70 % inhibition]”.
The molecule `CCN(CC)CCNC(=O)c1ccc(N)cc1` [PROCAINAMIDE] yielded a Ki in [3] of 738 µM.
`CC[N+](CC)(CC)CC` [TETRYLAMMONIUM]: the Activity result in data set [2] and in data set [9] was “substrate [+]” each time. The same molecule gave a Ki in data set [3] of 1370 µM.

B1: Solute carrier family 22 member 3 (Mus musculus) (protein)
chain: T1 sequence (Q9WTW5 whole entry)
For the molecule B1, the Km in data set [10] came out at 1900 µM.

As usually defined, the inhibition is the drop in the measured response relative to a control, in per cent. Lower therefore signals a response near the control. Broadly, the Ki is the equilibrium dissociation constant of an inhibitor or competing ligand from its target. Broadly, the Km is the substrate concentration at which the rate is half of its maximum.
